US20220370486A1, “COMBINATION TREATMENT OF SYSTEMIC FUNGAL INFECTIONS” (The Board of Trustees of the University of Illinois, priority 2019, published 2022)
Like-named read-outs stand apart in the source and are kept apart here.

What was measured:
primary hREC = assay: Toxicity to primary hREC; format: cell-based, human
Description: (§1) This key discovery opened a path to the rational development of a non-toxic AmB variant. To probe its predicted role in sterol binding, the hydroxyl group was synthetically deleted at the C2′ position on the mycosamine appendage.
(§2) In each case, C2′epiAmB is non-toxic to human red blood cells, primary hREC, mice, and rats up to the highest dose tested.

human red blood cells = assay: Toxicity to human red blood cells; format: cell-based
Description: as §1, §2

yeast = assay: Activity against yeast; format: cell-based
Description: as §1

[1] = Isothermal titration calorimetry (ITC) sterol binding
Description: as §1
A practical 11-step synthesis of C2′epiAmB using a frontier site-selective acylation method was developed. Wilcock, B. C. et al., Nat Chem 2012, 4 (12), 996-1003; Uno, B. E. A synthesis enabled understanding of Amphotericin B leading to derivatives with improved therapeutic indices. University of Illinois at Urbana-Champaign, 2014. The sterol binding and cell killing activities was then determined.

C. albicans 967374 = assay: Checkerboard broth microdilution (CLSI); format: cell-based; settings: Candida albicans, single agent; isolate 967374; read-out: MIC
Protocol: (§3) Isolates were tested against varying concentrations of amphotericin B and C2′epiAmB (range, 0.06 to 4 mg/L) and combined with fluconazole (range, 0.12 to 128 mg/L) or ketoconazole (range 0.008 to 8 mg/L) or voriconazole (range, 0.004 to 4 mg/L) using a checkerboard grid design following the Clinical and Laboratory Standards Institute (CLSI) broth microdilution method (M23Ed5).

[2] = system: C. parapsilosis ATCC 22019; assay: Checkerboard broth microdilution (CLSI); format: cell-based; settings: isolate ATCC 22019
Protocol: as §3

C. glabrata 1046695 = assay: Checkerboard broth microdilution (CLSI); format: cell-based; settings: Nakaseomyces glabratus; single agent; isolate 1046695
Protocol: as §3

C. tropicalis 1046709 = assay: Checkerboard broth microdilution (CLSI); format: cell-based; settings: Candida tropicalis; single agent; isolate 1046709
Protocol: as §3

C. krusei ATCC 6258 = assay: Checkerboard broth microdilution (CLSI); format: cell-based; settings: Pichia kudriavzevii, ATCC6258, single agent; isolate ATCC 6258; read-out: MIC
Protocol: as §3

C. parapsilosis 1048737 = assay: Checkerboard broth microdilution (CLSI); format: cell-based; settings: single agent, isolate 1048737
Protocol: as §3

C. krusei 975691 = assay: Checkerboard broth microdilution (CLSI); format: cell-based; settings: Pichia kudriavzevii
Protocol: as §3

C. auris 1081160 = assay: Checkerboard broth microdilution (CLSI); format: cell-based; settings: Candidozyma auris; single agent; isolate 1081160
Protocol: as §3

| Compound | toxicity to primary hREC (primary hREC) | toxicity to human red blood cells (human red blood cells) | activity against yeast (yeast) | binding of ergosterol by ITC [1] | binding of cholesterol by ITC ([1]; within the detection limits of ITC) | MIC (C. albicans 967374) | MIC ([2]; Lodderomyces parapsilosis, ATCC22019, single agent, read-out: MIC) | MIC ([2]; single agent) | MIC (C. glabrata 1046695) | MIC (C. tropicalis 1046709) | MIC (C. krusei ATCC 6258) | MIC (C. parapsilosis 1048737; Lodderomyces parapsilosis, read-out: MIC) | MIC (C. parapsilosis 1048737) | MIC (C. krusei 975691) | MIC (C. auris 1081160) |
| --- | --- | --- | --- | --- | --- | --- | --- | --- | --- | --- | --- | --- | --- | --- | --- |
| CC1C=CC=CC=CC=CC=CC=CC=CC(OC2CC(N)C(O)C(C)O2)CC2OC(O)(CC(O)CC(O)C(O)CCC(O)CC(O)CC(=O)OC(C)C(C)C1O)CC(O)C2C(=O)O (stereo not drawn) [C2′deOAmB] | nontoxic | nontoxic | retained good activity | bind ergosterol | not cholesterol | – | – | – | – | – | – | – | – | – | – |
| OC(Cn1cncn1)(Cn1cncn1)c1ccc(F)cc1F [Fluconazole, fluconazole] | – | – | – | – | – | 16 µg/mL | 1 µg/mL | 2 µg/mL | 128 µg/mL | 4 µg/mL | 32 µg/mL | 0.5 µg/mL | 1 µg/mL | 128 µg/mL | > 128 µg/mL |
